According to the supplement of paper PMC10331698:
± gives the standard deviation of the averaged measurements.

How the values were obtained:
Assay in all cases: level (log10 ratio to DMSO vehicle control); higher = higher biomarker level / cell amount than vehicle control
[1] = compound: C=CC(=O)OCC(F)(F)C(F)(F)C(F)(F)C(F)(F)COC(=O)C=C [1H,1H,6H,6H-Perfluorohexane-1,6-diol diacrylate]; conditions: 6700 nM; in DMSO
Description: (§1)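 BioMAP Diversity Plus panel of 12 human primary cell co-culture systems (3C, 4H, LPS, SAg, BT, BF4T, BE3C, CASM3C, HDF3CGF, KF3CT, MyoF, Mphg). Compounds were added 1 h before stimulation and left for 24 h (MyoF 48 h; BT 72 h for soluble read-outs or 6 d for IgG). Biomarkers were read by ELISA, cytotoxicity by SRB, PBMC viability and proliferation by Alamar Blue. Each well value was divided by the mean of 8 DMSO control wells on the same plate and log10 transformed; duplicate blinded samples were tested at 4 concentrations.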

[2] = compound: FC(F)(I)C(F)(F)C(F)(F)C(F)(F)C(F)(F)C(F)(F)I [1,6-Diiodoperfluorohexane]; conditions: 6700 nM; in DMSO
Description: as §1

[3] = compound: O=C(CC(=O)C(F)(F)C(F)(F)C(F)(F)F)c1cccs1 [(Perfluorobutyryl)-2-thenoylmethane]; conditions: in DMSO
Description: as §1

[4] = compound: O=C(Cl)C(F)(F)C(F)(F)C(F)(F)C(=O)Cl [Hexafluoroglutaryl chloride]; conditions: in DMSO
Description: as §1

Tetrafluorosuccinic acid = compound: O=C(O)C(F)(F)C(F)(F)C(=O)O [Tetrafluorosuccinic acid]; conditions: in DMSO
Description: as §1

Perfluorooctanoic acid = compound: O=C(O)C(F)(F)C(F)(F)C(F)(F)C(F)(F)C(F)(F)C(F)(F)C(F)(F)F [Perfluorooctanoic acid]; conditions: in DMSO
Description: as §1

[5] = compound: OCC(F)(F)C(F)(F)C(F)(F)C(F)(F)C(F)(F)C(F)(F)C(F)(F)C(F)(F)C(F)(F)C(F)(F)C(F)(F)F [11:1 Fluorotelomer alcohol]; conditions: in DMSO
Description: as §1

[6] = compound: OCCCC(F)(F)C(F)(F)C(F)(F)C(F)(F)C(F)(F)C(F)(F)C(F)(F)C(F)(F)F [3-(Perfluorooctyl)propanol]; conditions: 6700 nM; in DMSO
Description: as §1

[7] = compound: OCCCCC(F)(F)C(F)(F)C(F)(F)C(F)(F)F [4:4 Fluorotelomer alcohol]; conditions: in DMSO
Description: as §1

Row | Test System | level (log10) [1] | level (log10) [2] | level (log10) ([3]; 6700 nM) | level (log10) ([3]; 20000 nM) | level (log10) ([4]; 6700 nM) | level (log10) ([4]; 20000 nM) | level (log10) ([4]; 60000 nM) | level (log10) (Tetrafluorosuccinic acid; 6700 nM) | level (log10) (Tetrafluorosuccinic acid; 20000 nM) | level (log10) (Tetrafluorosuccinic acid; 60000 nM) | level (log10) (Perfluorooctanoic acid; 6700 nM) | level (log10) (Perfluorooctanoic acid; 20000 nM) | level (log10) (Perfluorooctanoic acid; 60000 nM) | level (log10) ([5]; 1100 nM) | level (log10) ([5]; 3300 nM) | level (log10) ([5]; 10000 nM) | level (log10) [6] | level (log10) ([7]; 6700 nM) | level (log10) ([7]; 20000 nM) | level (log10) ([7]; 60000 nM)
1 | HDF3CGF:CXCL9/MIG | -1.14 ± 0.041 | -0.463 | -0.0495 ± 0.012 | -0.0855 ± 0.0064 | 0.0125 ± 0.018 | -0.0055 ± 0.0064 | 0.0075 ± 0.012 | -0.0285 ± 0.029 | -0.039 ± 0.065 | -0.06 ± 0.086 | 0.001 ± 0.0057 | -0.0245 ± 0.036 | -0.0095 ± 0.028 | 0.009 | -0.0145 ± 0.00071 | 0.009 ± 0.05 | -0.0895 ± 0.054 | -0.0045 ± 0.0092 | 0.0035 ± 0.0092 | 0.006 ± 0.02
2 | BE3C:MMP-9 | -0.0435 ± 0.018 | -0.008 | 0.0275 ± 0.013 | -0.269 ± 0.0099 | -0.0005 ± 0.00071 | -0.003 ± 0.018 | -0.0325 ± 0.042 | -0.014 ± 0.027 | -0.0035 ± 0.011 | -0.005 ± 0.0028 | -0.0185 ± 0.012 | 0.015 ± 0.0028 | 0.079 ± 0.047 | -0.0475 ± 0.029 | -0.102 ± 0.0042 | -0.0735 ± 0.019 | 0.036 ± 0.038 | 0.0035 ± 0.032 | 0.014 ± 0.028 | 0.031 ± 0.045
3 | HDF3CGF:Collagen III | 0.105 ± 0.11 | -0.358 | 0.0155 ± 0.013 | -0.452 ± 0.0042 | -0.027 ± 0.0028 | -0.06 ± 0.031 | -0.023 ± 0.028 | -0.058 ± 0.057 | -0.0805 ± 0.059 | -0.118 ± 0.02 | 0.012 ± 0.011 | 0.0255 ± 0.0078 | 0.0155 ± 0.053 | 0.2 ± 0.0021 | 0.168 ± 0.057 | 0.171 ± 0.0042 | -0.12 ± 0.0092 | -0.0165 ± 0.029 | -0.0105 ± 0.019 | 0.011 ± 0.05
4 | BE3C:Keratin 8/18 | 0.0075 ± 0.005 | -0.018 | -0.0535 ± 0.025 | -0.145 ± 0.005 | 0.0005 ± 0.005 | -0.0195 ± 0.0078 | -0.0135 ± 0.022 | 0.0225 ± 0.012 | 0.009 ± 0.013 | 0.0165 ± 0.00071 | -0.0145 ± 0.0064 | -0.01 ± 0.0014 | 0.0065 ± 0.028 | 0.0065 ± 0.04 | -0.016 ± 0.035 | 0.018 ± 0.025 | 0.0085 ± 0.033 | -0.0025 ± 0.0035 | -0.012 ± 0.0042 | 0.0055 ± 0.015
5 | MyoF:Collagen III | -0.037 ± 0.045 | -0.527 | -0.059 ± 0.018 | -0.141 ± 0.0078 | -0.0115 ± 0.0078 | -0.004 ± 0.035 | -0.003 ± 0.021 | -0.013 ± 0.016 | -0.0205 ± 0.005 | -0.016 ± 0.0099 | 0.007 ± 0.0028 | -0.001 ± 0.0071 | -0.039 ± 0.0099 | 0.011 ± 0.0085 | -0.0005 ± 0.00071 | -0.001 ± 0.0071 | -0.0205 ± 0.00071 | 0.0085 ± 0.012 | 0.0015 ± 0.0078 | 0.003 ± 0.017
6 | KF3CT:CXCL9/MIG | -0.034 ± 0.0071 | -0.088 | 0.0085 ± 0.0064 | 0.009 ± 0.0057 | 0.0025 ± 0.011 | 0.0085 ± 0.011 | 0.008 ± 0.0085 | -0.011 ± 0.014 | -0.011 ± 0.0099 | -0.017 ± 0.0014 | 0.006 ± 0.016 | 0.006 ± 0.016 | 0.01 ± 0.016 | 0.0015 ± 0.0035 | -0.004 | 0.005 ± 0.011 | -0.018 ± 0.0057 | 0.007 ± 0.023 | 0.0105 ± 0.011 | 0.0125 ± 0.022
